Assay results taken from paper PMC5270753, “Novel thermostable antibiotic resistance enzymes from the Atlantis II Deep Red Sea brine pool” (Microbial Biotechnology, 2016).

Experiments:
ATII-APH(3′) = test system: T1, ATII-APH(3′); assay: pyruvate kinase/lactate dehydrogenase coupled assay, NADH oxidation at […] nm; type: biochemical; conditions: phosphorylation of aminoglycoside; Michaelis-Menten fit
T1 construct: full-length ORF (804 nt query), codon-optimised synthetic gene, N-terminal 10x-His tag (pET-16b), E. coli BL21(DE3), Talon-purified

ATII-ABL = test system: T2, ATII-ABL; assay: chromogenic nitrocefin hydrolysis at […] nm; type: biochemical, uncultured bacterium; conditions: 100 nM enzyme; Michaelis-Menten fit
T2 construct: gene bla

SMILES | Km (ATII-APH(3′)) | Km (ATII-ABL)
NC[C@H]1O[C@H](O[C@H]2[C@H](O)[C@@H](O[C@H]3O[C@H](CO)[C@@H](O)[C@H](N)[C@H]3O)[C@H](N)C[C@@H]2N)[C@H](O)[C@@H](O)[C@@H]1O [Kanamycin] | 4.7 ± 0.96 µM | –
O=C(Cc1cccs1)N[C@@H]1C(=O)N2C(C(=O)O)=C(/C=C/c3ccc([N+](=O)[O-])cc3[N+](=O)[O-])CS[C@H]12 [Nitrocefin] | – | 5.07 ± 1.65 µM
NCC[C@H](O)C(=O)N[C@@H]1C[C@H](N)[C@@H](O[C@H]2O[C@H](CN)[C@@H](O)[C@H](O)[C@H]2O)[C@H](O)[C@H]1O[C@H]1O[C@H](CO)[C@@H](O)[C@H](N)[C@H]1O [Amikacin] | 5500 ± 1650 µM | –
